Laboratory results as given in ChEMBL document CHEMBL1909046, “DrugMatrix in vitro pharmacology data”.

Each compound was assayed against T1, Thromboxane-A synthase (Homo sapiens, UniProt P24557) (assay: biochemical). Conditions: platelet.
T1 sequence (P24557 whole entry): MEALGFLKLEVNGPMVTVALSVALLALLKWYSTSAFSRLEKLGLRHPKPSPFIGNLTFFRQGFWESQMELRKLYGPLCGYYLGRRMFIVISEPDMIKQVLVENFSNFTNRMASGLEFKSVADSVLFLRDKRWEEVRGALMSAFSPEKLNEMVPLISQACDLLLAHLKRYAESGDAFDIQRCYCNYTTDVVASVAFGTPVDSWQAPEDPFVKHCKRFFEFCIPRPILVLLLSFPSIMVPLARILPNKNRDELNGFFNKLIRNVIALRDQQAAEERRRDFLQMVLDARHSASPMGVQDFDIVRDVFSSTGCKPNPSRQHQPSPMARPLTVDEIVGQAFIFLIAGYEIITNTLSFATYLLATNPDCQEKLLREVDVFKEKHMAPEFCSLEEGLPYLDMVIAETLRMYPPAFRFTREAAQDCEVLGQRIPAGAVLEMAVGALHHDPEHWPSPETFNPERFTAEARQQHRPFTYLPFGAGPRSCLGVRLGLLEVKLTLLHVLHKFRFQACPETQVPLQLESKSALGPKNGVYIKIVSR
Type: tissue-based, Platelet

Compound	IC50	Ki
CC1CCC(NC(=O)N(CCCl)N=O)CC1 (configuration not stated) [SEMUSTINE]	Not Active	
O=C1C[C@@H]2OCC=C3CN4CC[C@]56c7ccccc7N1[C@H]5[C@H]2[C@H]3C[C@H]46 [STRYCHNINE]	Not Active	
C[N+](C)(C)CCOC(=O)CCC(=O)OCC[N+](C)(C)C.[Cl-].[Cl-] [SUCCINYLCHOLINE CHLORIDE]	Not Active	
Nc1ccc(S(=O)(=O)NC(=O)c2ccccc2)cc1 [SULFABENZAMIDE]	Not Active	
CCCCCCCCNC(C)C(O)c1ccc(SC(C)C)cc1 (configuration not stated) [SULOCTIDIL]	Not Active	
O=c1[nH]c(=O)n(C2CCCO2)cc1F (configuration not stated) [TEGAFUR]	Not Active	
CC(=N)S [THIOACETAMIDE]	Not Active	
Cc1ccc(C(=O)c2ccc(CC(=O)O)n2C)cc1 [TOLMETIN]	Not Active	
CC(=O)OCC(COC(C)=O)OC(C)=O [TRIACETIN]	Not Active	
CN1CCN(CCCN2c3ccccc3Sc3ccc(C(F)(F)F)cc32)CC1 [TRIFLUOPERAZINE]	Not Active	
TRANSPLATIN	Not Active	Not Active
ZIRCONIUM(IV) CHLORIDE	Not Active	Not Active

Same assay, conditions: read-out: IC50

Compound	IC50
Clc1ccc(COC(Cn2ccnc2)c2ccc(Cl)cc2Cl)c(Cl)c1 (configuration not stated) [MICONAZOLE]	263 nM

The compounds below were run against Melanocortin receptor 4 (Homo sapiens, UniProt P32245) (assay: not given). Conditions: hek293.
Melanocortin receptor 4, sequence (P32245 whole entry): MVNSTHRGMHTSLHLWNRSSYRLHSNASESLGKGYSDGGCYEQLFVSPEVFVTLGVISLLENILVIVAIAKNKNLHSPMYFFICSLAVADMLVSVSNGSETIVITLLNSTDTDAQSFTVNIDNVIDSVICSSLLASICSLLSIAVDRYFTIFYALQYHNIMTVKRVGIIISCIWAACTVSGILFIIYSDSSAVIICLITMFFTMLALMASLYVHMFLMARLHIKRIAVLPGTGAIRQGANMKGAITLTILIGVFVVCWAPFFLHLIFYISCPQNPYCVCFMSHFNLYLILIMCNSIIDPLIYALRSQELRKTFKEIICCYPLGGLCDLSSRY
Type: cell membranes, Membrane

Compound	IC50	Ki
C[S+]([O-])c1ccc(-c2nc(-c3ccncc3)c(-c3ccc(F)cc3)[nH]2)cc1 (configuration not stated) [SB-203580]	Not Active	
CC1CCC(NC(=O)N(CCCl)N=O)CC1 (configuration not stated) [SEMUSTINE]	Not Active	
O=C1C[C@@H]2OCC=C3CN4CC[C@]56c7ccccc7N1[C@H]5[C@H]2[C@H]3C[C@H]46 [STRYCHNINE]	Not Active	
C[N+](C)(C)CCOC(=O)CCC(=O)OCC[N+](C)(C)C.[Cl-].[Cl-] [SUCCINYLCHOLINE CHLORIDE]	Not Active	
Nc1ccc(S(=O)(=O)NC(=O)c2ccccc2)cc1 [SULFABENZAMIDE]	Not Active	
CCCCCCCCNC(C)C(O)c1ccc(SC(C)C)cc1 (configuration not stated) [SULOCTIDIL]	Not Active	
O=c1[nH]c(=O)n(C2CCCO2)cc1F (configuration not stated) [TEGAFUR]	Not Active	
CC(=N)S [THIOACETAMIDE]	Not Active	
Cc1ccc(C(=O)c2ccc(CC(=O)O)n2C)cc1 [TOLMETIN]	Not Active	
CC(=O)OCC(COC(C)=O)OC(C)=O [TRIACETIN]	Not Active	
CN1CCN(CCCN2c3ccccc3Sc3ccc(C(F)(F)F)cc32)CC1 [TRIFLUOPERAZINE]	Not Active	
TRANSPLATIN	Not Active	Not Active
ZIRCONIUM(IV) CHLORIDE	Not Active	Not Active

These compounds were tested against T2, Amine oxidase [flavin-containing] A (Homo sapiens, UniProt P21397) (assay: DRUGMATRIX: Monoamine Oxidase MAO-A enzyme inhibition (substrate: Kynuramine)). Conditions: bti-tn-5b1-4; Not Active = under 50% inhibition at 10 µM.
T2 sequence (P21397 whole entry): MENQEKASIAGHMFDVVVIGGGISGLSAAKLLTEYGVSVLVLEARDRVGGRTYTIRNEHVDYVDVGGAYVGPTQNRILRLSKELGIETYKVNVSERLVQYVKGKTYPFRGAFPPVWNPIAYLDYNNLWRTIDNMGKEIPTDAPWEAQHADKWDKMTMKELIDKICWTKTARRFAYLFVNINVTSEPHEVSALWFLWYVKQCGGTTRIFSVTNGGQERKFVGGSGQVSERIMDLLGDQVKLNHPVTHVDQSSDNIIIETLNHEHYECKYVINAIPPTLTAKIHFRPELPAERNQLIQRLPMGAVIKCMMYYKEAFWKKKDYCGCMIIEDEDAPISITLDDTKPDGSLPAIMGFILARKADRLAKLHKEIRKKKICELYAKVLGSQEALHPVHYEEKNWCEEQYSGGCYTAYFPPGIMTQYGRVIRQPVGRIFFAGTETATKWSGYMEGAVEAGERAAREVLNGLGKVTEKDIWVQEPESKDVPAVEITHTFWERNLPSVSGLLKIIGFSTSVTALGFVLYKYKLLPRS
Parameters: species or system BTI-TN-5B1-4

Compound	IC50	Ki
Clc1ccc(COC(Cn2ccnc2)c2ccc(Cl)cc2Cl)c(Cl)c1 (configuration not stated) [MICONAZOLE]	Not Active	
C[S+]([O-])c1ccc(-c2nc(-c3ccncc3)c(-c3ccc(F)cc3)[nH]2)cc1 (configuration not stated) [SB-203580]	Not Active	
CC1CCC(NC(=O)N(CCCl)N=O)CC1 (configuration not stated) [SEMUSTINE]	Not Active	
O=C1C[C@@H]2OCC=C3CN4CC[C@]56c7ccccc7N1[C@H]5[C@H]2[C@H]3C[C@H]46 [STRYCHNINE]	Not Active	
C[N+](C)(C)CCOC(=O)CCC(=O)OCC[N+](C)(C)C.[Cl-].[Cl-] [SUCCINYLCHOLINE CHLORIDE]	Not Active	
Nc1ccc(S(=O)(=O)NC(=O)c2ccccc2)cc1 [SULFABENZAMIDE]	Not Active	
CCCCCCCCNC(C)C(O)c1ccc(SC(C)C)cc1 (configuration not stated) [SULOCTIDIL]	Not Active	
O=c1[nH]c(=O)n(C2CCCO2)cc1F (configuration not stated) [TEGAFUR]	Not Active	
CC(=N)S [THIOACETAMIDE]	Not Active	
Cc1ccc(C(=O)c2ccc(CC(=O)O)n2C)cc1 [TOLMETIN]	Not Active	
CC(=O)OCC(COC(C)=O)OC(C)=O [TRIACETIN]	Not Active	
CN1CCN(CCCN2c3ccccc3Sc3ccc(C(F)(F)F)cc32)CC1 [TRIFLUOPERAZINE]	Not Active	
TRANSPLATIN	Not Active	Not Active
ZIRCONIUM(IV) CHLORIDE	Not Active	Not Active

The compounds below were run against T3, Nitric oxide synthase, inducible (Mus musculus, UniProt P29477) (assay: not given). Conditions: not given.
T3 sequence (P29477 whole entry): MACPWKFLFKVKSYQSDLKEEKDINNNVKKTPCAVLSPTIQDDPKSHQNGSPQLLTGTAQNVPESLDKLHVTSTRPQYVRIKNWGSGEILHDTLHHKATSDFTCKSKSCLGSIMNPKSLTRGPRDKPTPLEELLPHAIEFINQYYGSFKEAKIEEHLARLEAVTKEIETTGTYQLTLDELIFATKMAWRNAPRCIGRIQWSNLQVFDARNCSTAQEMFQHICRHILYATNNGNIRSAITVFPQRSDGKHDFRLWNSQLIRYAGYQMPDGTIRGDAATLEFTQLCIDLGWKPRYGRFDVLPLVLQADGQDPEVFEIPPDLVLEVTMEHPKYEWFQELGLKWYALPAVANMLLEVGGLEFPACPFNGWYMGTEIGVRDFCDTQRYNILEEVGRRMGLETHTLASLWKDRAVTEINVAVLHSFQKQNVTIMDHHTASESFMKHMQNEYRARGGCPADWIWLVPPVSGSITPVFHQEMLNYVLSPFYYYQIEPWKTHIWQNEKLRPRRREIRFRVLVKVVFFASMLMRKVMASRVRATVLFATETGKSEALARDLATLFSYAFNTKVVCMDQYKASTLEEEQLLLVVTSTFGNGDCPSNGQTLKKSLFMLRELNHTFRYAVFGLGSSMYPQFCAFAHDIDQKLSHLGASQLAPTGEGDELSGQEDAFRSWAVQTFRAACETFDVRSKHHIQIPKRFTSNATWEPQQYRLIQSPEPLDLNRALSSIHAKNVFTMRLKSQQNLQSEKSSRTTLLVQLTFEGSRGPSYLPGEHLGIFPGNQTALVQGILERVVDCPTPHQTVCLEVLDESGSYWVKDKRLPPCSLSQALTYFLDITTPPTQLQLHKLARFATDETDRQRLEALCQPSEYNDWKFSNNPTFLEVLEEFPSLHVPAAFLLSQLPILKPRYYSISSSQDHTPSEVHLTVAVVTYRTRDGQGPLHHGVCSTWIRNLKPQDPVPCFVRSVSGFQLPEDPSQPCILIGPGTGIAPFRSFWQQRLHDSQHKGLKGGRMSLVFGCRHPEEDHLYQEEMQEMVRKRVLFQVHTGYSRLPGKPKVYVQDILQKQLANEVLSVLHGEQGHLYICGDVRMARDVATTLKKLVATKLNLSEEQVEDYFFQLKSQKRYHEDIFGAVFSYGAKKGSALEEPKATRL
Parameters: species or system Escherichia coli

Compound	IC50	Ki
Clc1ccc(COC(Cn2ccnc2)c2ccc(Cl)cc2Cl)c(Cl)c1 (configuration not stated) [MICONAZOLE]	Not Active	
C[S+]([O-])c1ccc(-c2nc(-c3ccncc3)c(-c3ccc(F)cc3)[nH]2)cc1 (configuration not stated) [SB-203580]	Not Active	
CC1CCC(NC(=O)N(CCCl)N=O)CC1 (configuration not stated) [SEMUSTINE]	Not Active	
O=C1C[C@@H]2OCC=C3CN4CC[C@]56c7ccccc7N1[C@H]5[C@H]2[C@H]3C[C@H]46 [STRYCHNINE]	Not Active	
C[N+](C)(C)CCOC(=O)CCC(=O)OCC[N+](C)(C)C.[Cl-].[Cl-] [SUCCINYLCHOLINE CHLORIDE]	Not Active	
Nc1ccc(S(=O)(=O)NC(=O)c2ccccc2)cc1 [SULFABENZAMIDE]	Not Active	
CCCCCCCCNC(C)C(O)c1ccc(SC(C)C)cc1 (configuration not stated) [SULOCTIDIL]	Not Active	
O=c1[nH]c(=O)n(C2CCCO2)cc1F (configuration not stated) [TEGAFUR]	Not Active	
CC(=N)S [THIOACETAMIDE]	Not Active	
Cc1ccc(C(=O)c2ccc(CC(=O)O)n2C)cc1 [TOLMETIN]	Not Active	
CC(=O)OCC(COC(C)=O)OC(C)=O [TRIACETIN]	Not Active	
CN1CCN(CCCN2c3ccccc3Sc3ccc(C(F)(F)F)cc32)CC1 [TRIFLUOPERAZINE]	Not Active	
TRANSPLATIN	Not Active	Not Active
ZIRCONIUM(IV) CHLORIDE	Not Active	Not Active
